Laboratory results: ChEMBL document CHEMBL1201862, “PubChem BioAssay data set” (2004)
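48-hour exposure; five concentrations; linearly interpolated endpoints. GI50 marks 50% less growth.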 Activity calls are given as the source filed them. No stated cut-off is given here; in the data, active = GI50 up to about 1.1 µM and inactive = higher.

Assays:
Test in all cases: NCI anticancer screen, dose series, 48 h
ACHN = system: ACHN
BT-549 = system: BT-549
EKVX = system: EKVX
HCT-15 = system: HCT-15
HOP-62 = system: HOP-62
LOX IMVI = system: LOX IMVI
M14 = system: M14
MDA-MB-231 = system: MDA-MB-231
NCI-H460 = system: NCI-H460
OVCAR-5 = system: OVCAR-5
OVCAR-8 = system: OVCAR-8
RXF 393 = system: RXF 393
SF-268 = system: SF-268
SF-295 = system: SF-295
SK-MEL-28 = system: SK-MEL-28
SK-OV-3 = system: SK-OV-3
SW-620 = system: SW-620
RPMI-8226 = system: RPMI-8226
SK-MEL-2 = system: SK-MEL-2
SR = system: SR

Compound | GI50 (ACHN) | GI50 (BT-549) | GI50 (EKVX) | GI50 (HCT-15) [µM] | GI50 (HOP-62) | GI50 (LOX IMVI) | GI50 (M14) | GI50 (MDA-MB-231) | GI50 (NCI-H460) | GI50 (OVCAR-5) | GI50 (OVCAR-8) | GI50 (RXF 393) | GI50 (SF-268) | GI50 (SF-295) | GI50 (SK-MEL-28) | GI50 (SK-OV-3) | GI50 (SW-620) | GI50 (RPMI-8226) | GI50 (SK-MEL-2) | GI50 (SR)
C=CCc1oc(C)nc1CCCC | > 100 µM (inactive) | > 100 µM (inactive) | > 100 µM (inactive) | > 100 | > 100 µM (inactive) | > 100 µM (inactive) | > 100 µM (inactive) | > 100 µM (inactive) | > 100 µM (inactive) | > 100 µM (inactive) | > 100 µM (inactive) | > 100 µM (inactive) | > 100 µM (inactive) | > 100 µM (inactive) | > 100 µM (inactive) | > 100 µM (inactive) | > 100 µM (inactive) |  |  | 
CC(=O)Oc1cc2c(n(C)c1=O)-c1ccccc1C2 | 32.5 µM (inactive) | 46.1 µM (inactive) |  | 28.1 | 81.7 µM (inactive) | 29.4 µM (inactive) | 93.3 µM (inactive) | 61.4 µM (inactive) | 43.8 µM (inactive) | > 100 µM (inactive) | 32 µM (inactive) | > 100 µM (inactive) | 44.1 µM (inactive) | > 100 µM (inactive) | > 100 µM (inactive) | > 100 µM (inactive) | 24.4 µM (inactive) | > 100 µM (inactive) | > 100 µM (inactive) | 
COc1ccc2nc3n(c2c1)C(c1c(Cl)cccc1Cl)SC3 (stereo unspecified) | > 100 µM (inactive) | > 100 µM (inactive) | > 100 µM (inactive) | > 100 | 59.7 µM (inactive) | > 100 µM (inactive) | > 100 µM (inactive) |  | > 100 µM (inactive) | > 100 µM (inactive) | > 100 µM (inactive) | > 100 µM (inactive) |  | > 100 µM (inactive) | > 100 µM (inactive) | > 100 µM (inactive) | > 100 µM (inactive) | > 100 µM (inactive) | > 100 µM (inactive) | > 100 µM (inactive)
N#Cc1c(-c2ccccc2)nc(-c2ccccc2)sc1=S | > 100 µM (inactive) | > 100 µM (inactive) | > 100 µM (inactive) | > 100 | > 100 µM (inactive) | > 100 µM (inactive) | > 100 µM (inactive) | > 100 µM (inactive) | > 100 µM (inactive) | > 100 µM (inactive) | > 100 µM (inactive) | > 100 µM (inactive) | > 100 µM (inactive) | > 100 µM (inactive) | > 100 µM (inactive) | > 100 µM (inactive) | > 100 µM (inactive) | > 100 µM (inactive) | > 100 µM (inactive) | 
CN(C)c1ccc(-c2c(C#N)c(-c3ccccc3)n(NS(=O)(=O)c3ccccc3)c(=O)c2C#N)cc1 | 45.8 µM (inactive) | 56.9 µM (inactive) | 67.5 µM (inactive) | 77.3 | 38.8 µM (inactive) | 37.4 µM (inactive) | 47.4 µM (inactive) | 88.1 µM (inactive) | 54.3 µM (inactive) | > 100 µM (inactive) | 31.4 µM (inactive) | 44 µM (inactive) | 56 µM (inactive) | 41.7 µM (inactive) | 70.8 µM (inactive) | 67.3 µM (inactive) | 43.3 µM (inactive) | 21.3 µM (inactive) | 41.6 µM (inactive) | 
N[C@H](Cc1ccc2oc3cc(=O)c4ccccc4c-3nc2c1)C(=O)O | > 100 µM (inactive) |  | > 100 µM (inactive) | 39.4 | 46.5 µM (inactive) | 33.2 µM (inactive) | 19.3 µM (inactive) | 62.7 µM (inactive) | 25.9 µM (inactive) | 65.9 µM (inactive) | 30.5 µM (inactive) | 70.1 µM (inactive) | 79.6 µM (inactive) | 42 µM (inactive) | > 100 µM (inactive) | > 100 µM (inactive) | 46.7 µM (inactive) | 24.2 µM (inactive) |  | 17.9 µM (inactive)
Cc1cc2c(O)c(c1)CN(Cc1ccccc1)Cc1cc(C)cc(c1O)CN(Cc1ccccc1)Cc1cc(C)cc(c1O)CN(Cc1ccccc1)C2 | > 100 µM (inactive) | > 100 µM (inactive) |  | > 100 | 46.2 µM (inactive) | > 100 µM (inactive) | > 100 µM (inactive) | > 100 µM (inactive) | > 100 µM (inactive) | > 100 µM (inactive) | > 100 µM (inactive) | 75.2 µM (inactive) | > 100 µM (inactive) | > 100 µM (inactive) | > 100 µM (inactive) | > 100 µM (inactive) | > 100 µM (inactive) | > 100 µM (inactive) | 32.3 µM (inactive) | 
C=CCNC(NCC=C)=C(C(Cl)=C(Cl)Cl)[N+](=O)[O-] | 31.8 µM (inactive) | 26 µM (inactive) | 67.3 µM (inactive) | 16.8 | > 100 µM (inactive) |  | 31.9 µM (inactive) | > 100 µM (inactive) | > 100 µM (inactive) | > 100 µM (inactive) | 16.6 µM (inactive) |  | 53.8 µM (inactive) | > 100 µM (inactive) | 79.3 µM (inactive) | > 100 µM (inactive) | 22.9 µM (inactive) | 49.1 µM (inactive) | > 100 µM (inactive) | 
O=c1c2cc([N+](=O)[O-])ccc2n2n1CCCCC2 | > 100 µM (inactive) |  | > 100 µM (inactive) | > 100 | > 100 µM (inactive) | > 100 µM (inactive) | > 100 µM (inactive) | > 100 µM (inactive) | > 100 µM (inactive) | > 100 µM (inactive) | > 100 µM (inactive) | > 100 µM (inactive) | > 100 µM (inactive) | > 100 µM (inactive) | > 100 µM (inactive) | > 100 µM (inactive) | > 100 µM (inactive) | > 100 µM (inactive) |  | > 100 µM (inactive)
O=c1c(C(c2ccc([N+](=O)[O-])cc2)c2c(O)oc3ccccc3c2=O)c(O)oc2ccccc12 |  | > 100 µM (inactive) | > 100 µM (inactive) | > 100 | > 100 µM (inactive) | > 100 µM (inactive) |  | > 100 µM (inactive) | > 100 µM (inactive) |  | > 100 µM (inactive) |  | > 100 µM (inactive) |  | > 100 µM (inactive) |  | > 100 µM (inactive) | 1 µM (active) | > 100 µM (inactive) | 
COc1cc(/C=C2\Cc3cc(OC)c(OC)cc3C2=O)cc(OC)c1 | > 58.2 µM (inactive) | 15.3 µM (inactive) | > 100 µM (inactive) | 5.26 | 15.8 µM (inactive) | > 55.7 µM (inactive) | > 100 µM (inactive) | 36.3 µM (inactive) | 15.1 µM (inactive) | > 100 µM (inactive) | > 26 µM (inactive) | 19.8 µM (inactive) | 45.9 µM (inactive) | 4.2 µM (inactive) | > 100 µM (inactive) | 17 µM (inactive) | > 100 µM (inactive) | > 33.6 µM (inactive) | > 60 µM (inactive) | 
CCC(NC(C)c1ccccc1)C(O)c1ccc(OCc2ccccc2)c(OCc2ccccc2)c1 (stereo unspecified) | 18 µM (inactive) |  | 16.5 µM (inactive) | 14.5 | 17.9 µM (inactive) | 12.1 µM (inactive) | 4.86 µM (inactive) | 8.47 µM (inactive) | 15.1 µM (inactive) | 13.1 µM (inactive) | 14.1 µM (inactive) | 8.65 µM (inactive) | 19.4 µM (inactive) | 20.4 µM (inactive) | 19.9 µM (inactive) | 15.5 µM (inactive) | 4.57 µM (inactive) | 4.04 µM (inactive) | 14.9 µM (inactive) | 2.47 µM (inactive)
CC1(C(=O)O)CCCC1C(=O)O (stereo unspecified) | > 100 µM (inactive) | > 100 µM (inactive) | > 100 µM (inactive) | > 100 | > 100 µM (inactive) | > 100 µM (inactive) | > 100 µM (inactive) | > 100 µM (inactive) | > 100 µM (inactive) | > 100 µM (inactive) | > 100 µM (inactive) | > 100 µM (inactive) | > 100 µM (inactive) | > 100 µM (inactive) | > 100 µM (inactive) |  | > 100 µM (inactive) | 4.51 µM (inactive) | > 100 µM (inactive) | 
Cc1nc2c(O)cccc2c(=O)[nH]1 | 348 µM (inactive) | 174 µM (inactive) | 456 µM (inactive) | 270 | 437 µM (inactive) | 485 µM (inactive) | 611 µM (inactive) |  | 263 µM (inactive) | 382 µM (inactive) | 437 µM (inactive) | 158 µM (inactive) | 467 µM (inactive) | 351 µM (inactive) | > 1000 µM (inactive) | 348 µM (inactive) | > 1000 µM (inactive) | 135 µM (inactive) | > 1000 µM (inactive) | 114 µM (inactive)
Cc1cn(C2C=CC(COP(=O)(OCc3ccc([N+](=O)[O-])o3)N(C)CCCCCl)O2)c(=O)[nH]c1=O (stereo unspecified) | 15.3 µM (inactive) |  |  | 16.6 | 16 µM (inactive) | 3.58 µM (inactive) | 4.69 µM (inactive) | 12.1 µM (inactive) | 10 µM (inactive) | 15.6 µM (inactive) | 13.9 µM (inactive) | 2.38 µM (inactive) | 7.57 µM (inactive) | 15.6 µM (inactive) | 10.6 µM (inactive) | 11.7 µM (inactive) | 10.1 µM (inactive) | 2.69 µM (inactive) | 3.48 µM (inactive) | 1.89 µM (inactive)
CC(C)[C@@H]1CC[C@@H](C)C[C@H]1OC(=O)/C=C1/C2C=CC(O2)C1C(=O)O[C@@H]1C[C@H](C)CC[C@H]1C(C)C (stereo partly specified) | > 100 µM (inactive) |  | > 100 µM (inactive) | > 100 | > 100 µM (inactive) | > 100 µM (inactive) | > 100 µM (inactive) | > 100 µM (inactive) | 89.1 µM (inactive) | > 100 µM (inactive) | > 100 µM (inactive) | > 100 µM (inactive) | > 100 µM (inactive) | 65.3 µM (inactive) | > 100 µM (inactive) | > 100 µM (inactive) | > 100 µM (inactive) | > 100 µM (inactive) |  | 41.7 µM (inactive)
